Laboratory results reported in patent US10035760B2, “Inhibitors of human immunodeficiency virus replication” (priority 2013, dated 2018).
Like-named read-outs stand apart in the source and are kept apart here.

Tested on: recombinant NL4-3 virus (Renilla luciferase) in MT-2 cells
Experiment: HIV cell culture assay (antiviral activity, luciferase readout in infected MT-2 cells)
Type: cell-based
Method in brief: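 Nef-deleted NL4-3 carrying Renilla luciferase, produced by 293T transfection, used to infect MT-2 cells for 4–5 days with serial compound dilutions. Live-cell luciferase signal read as infection marker; EC50 from exponential median-effect equation.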

[1] = Renilla, NL43, read-out: Activity, antiviral activity class, recombinant NL4-3 Renilla luciferase virus in MT-2 cells
[2] = Renilla, NL43, recombinant NL4-3 Renilla luciferase virus in MT-2 cells

Row | Structure (SMILES) | EC50 (read-out: Activity, antiviral activity class, recombinant NL4-3 Renilla luciferase virus in MT-2 cells) | EC50 [1] | EC50 [2]
1 | CN(C(=O)[C@H](Cc1ccccc1)NC(=O)NS(=O)(=O)c1ccccc1-c1cnn(C)c1)c1ccc2c(c1)OCO2 [Example 133, (S)—N-(benzo[d][1,3]dioxol-5-yl)-N-methyl-2-(3-((2-(1-methyl-1H-pyrazol-4-yl)phenyl)sulfonyl)ureido)-3-phenylpropanamide] | 100 to 1000 nM | – | –
2 | Cc1ccccc1S(=O)(=O)NC(=O)N[C@@H](Cc1ccccc1)C(=O)N1CCCc2ccccc21 [Example 170, (S)—N-((1-(3,4-dihydroquinolin-1(2H)-yl)-1-oxo-3-phenylpropan-2-yl)carbamoyl)-2-methylbenzenesulfonamide] | – | 1000 to 10000 nM | –
3 | Cc1ccccc1S(=O)(=O)NC(=O)N[C@@H](Cc1ccccc1)C(=O)N(C)c1ccc2ncccc2c1 [Example CA-71, (S)—N-methyl-3-phenyl-N-(quinolin-6-yl)-2-(3-(o-tolylsulfonyl)ureido)propanamide] | – | < 100 nM | –
4 | Cc1ccc(S(=O)(=O)NC(=O)N[C@@H](Cc2ccccc2)C(=O)N(C)c2ccc3c(c2)OCO3)cc1 [Example 5, (S)—N-(benzo[d][1,3]dioxol-5-yl)-N-methyl-3-phenyl-2-(3-tosylureido)propanamide] | – | 100 to 1000 nM | –
5 | CCOc1ccc(C[C@H](NC(=O)NS(=O)(=O)c2ccccc2C)C(=O)N(C)c2ccc3c(c2)OCO3)cc1 [Example 52, (S)—N-(benzo[d][1,3]dioxol-5-yl)-3-(4-ethoxyphenyl)-N-methyl-2-(3-(o-tolylsulfonyl)ureido)propanamide] | – | 1000 to 10000 nM | 6230 nM
6 | COc1ccc(N(Cc2ccccc2)C(=O)[C@H](Cc2ccccc2)NC(=O)NS(=O)(=O)c2ccccc2C)cc1 [Example ZY-3, (S)—N-benzyl-N-(4-methoxyphenyl)-3-phenyl-2-(3-(o-tolylsulfonyl)ureido)propanamide] | – | 1000 to 10000 nM | 3610 nM
7 | CN(C(=O)[C@@H](Cc1ccccc1)NC(=O)NS(=O)(=O)c1ccccc1)c1ccc2c(c1)OCO2 [Example 86] | – | 10000 to 100000 nM | –
8 | C=Cc1cccc(C[C@H](NC(=O)NS(=O)(=O)c2ccccc2C=C)C(=O)N(C)c2ccc(OC)cc2)c1 [Example 212, (S)—N-(4-methoxyphenyl)-N-methyl-3-(3-vinylphenyl)-2-(3-((2-vinylphenyl)sulfonyl)ureido)propanamide] | – | < 100 nM | 58 nM
9 | CCN(C(=O)[C@H](Cc1ccccc1)NC(=O)NS(=O)(=O)c1cccc2ccccc12)c1ccc(OC)cc1 [Example 116, (S)—N-ethyl-N-(4-methoxyphenyl)-2-(3-(naphthalen-1-ylsulfonyl)ureido)-3-phenylpropanamide] | – | < 100 nM | –
10 | CN(C(=O)[C@H](Cc1ccccc1)NC(=O)NS(=O)(=O)c1cccc(Br)c1)c1ccc2c(c1)OCO2 [Example 19, (S)—N-(benzo[d][1,3]dioxol-5-yl)-2-(3-((3-bromophenyl)sulfonyl)ureido)-N-methyl-3-phenylpropanamide] | – | 100 to 1000 nM | –
11 | CCN(C(=O)[C@H](Cc1ccccc1)NC(=O)NS(=O)(=O)c1ccccc1C)c1ccccc1 [Example CA-68, (S)—N-ethyl-N, 3-diphenyl-2-(3-(o-tolylsulfonyl)ureido)propanamide] | – | 100 to 1000 nM | –
12 | Cc1ccccc1S(=O)(=O)NC(=O)N[C@@H](Cc1cc(F)cc(F)c1)C(=O)N(C)c1ccc(F)cc1F [Example CA-112, (S)—N-(2,4-difluorophenyl)-3-(3,5-difluorophenyl)-N-methyl-2-(3-(o-tolylsulfonyl)ureido)propanamide] | – | 1000 to 10000 nM | 1290 nM
13 | CN(C(=O)[C@H](Cc1cc(F)cc(F)c1)NC(=O)NS(=O)(=O)c1ccccc1F)c1ccc2scnc2c1 [Example ZY-16, (S)—N-(benzo[d]thiazol-5-yl)-3-(3,5-difluorophenyl)-2-(3-((2-fluorophenyl)sulfonyl)ureido)-N-methylpropanamide] | – | < 100 nM | –
14 | CN(C(=O)[C@H](Cc1ccccc1)NC(=O)NS(C)(=O)=O)c1ccc2c(c1)OCO2 [Example 44, (S)—N-(benzo[d][1,3]dioxol-5-yl)-N-methyl-2-(3-(methylsulfonyl)ureido)-3-phenylpropanamide] | – | 1000 to 10000 nM | 2480 nM
15 | COc1cc(C)c(N(C)C(=O)[C@H](Cc2ccccc2)NC(=O)NS(=O)(=O)c2ccccc2C)cc1C [Example JB-84, (S)—N-(4-methoxy-2,5-dimethylphenyl)-N-methyl-3-phenyl-2-(3-(o-tolylsulfonyl)ureido)propanamide] | – | 100 to 1000 nM | –
16 | Cc1ccccc1S(=O)(=O)NC(=O)N[C@@H](Cc1cc(F)cc(F)c1)C(=O)N(C)c1cc2ccccc2cn1 [Example CA-105, (S)-3-(3,5-difluorophenyl)-N-(isoquinolin-3-yl)-N-methyl-2-(3-(o-tolylsulfonyl)ureido)propanamide] | – | 100 to 1000 nM | –
17 | CN(C(=O)[C@H](Cc1ccccc1)NC(=O)NS(=O)(=O)c1cc(Cl)sc1Cl)c1ccc2c(c1)OCO2 [Example 32, (S)—N-(benzo[d][1,3]dioxol-5-yl)-2-(3-((2,5-dichlorothiophen-3-yl)sulfonyl)ureido)-N-methyl-3-phenylpropanamide] | – | < 100 nM | 70 nM
18 | Cc1ccccc1S(=O)(=O)NC(=O)N[C@@H](Cc1ccccc1F)C(=O)N(C)c1ccc2c(c1)OCO2 [Example 70, (S)—N-(benzo[d][1,3]dioxol-5-yl)-3-(2-fluorophenyl)-N-methyl-2-(3-(o-tolylsulfonyl)ureido)propanamide] | – | 100 to 1000 nM | –
19 | CCN(C(=O)[C@H](Cc1ccccc1)NC(=O)NS(=O)(=O)c1cccc(-c2csc3ccccc23)c1C)c1ccc(OC)cc1 [Example 161, (S)-2-(3-((3-(benzo[b]thiophen-3-yl)-2-methylphenyl)sulfonyl)ureido)-N-ethyl-N-(4-methoxyphenyl)-3-phenylpropanamide] | – | 1000 to 10000 nM | –
20 | CN(C(=O)[C@H](Cc1ccccc1)NC(=O)NS(=O)(=O)c1cc(F)ccc1F)c1ccc2c(c1)OCO2 [Example 99, (S)—N-(benzo[d][1,3]dioxol-5-yl)-2-(3-((2,5-difluorophenyl)sulfonyl)ureido)-N-methyl-3-phenylpropanamide] | – | 100 to 1000 nM | 150 nM
21 | COc1ccc(N(C)C(=O)[C@H](Cc2ccccc2)NC(=O)NS(=O)(=O)c2ccccc2C)cc1C [Example CA-77, (S)—N-(4-methoxy-3-methylphenyl)-N-methyl-3-phenyl-2-(3-(o-tolylsulfonyl)ureido)propanamide] | – | < 100 nM | –
22 | Cc1ccccc1S(=O)(=O)NC(=O)N[C@@H](Cc1ccccc1)C(=O)N(C)c1cccc2[nH]cnc12 [Example CA-101, (S)—N-(1H-benzo[d]imidazol-4-yl)-N-methyl-3-phenyl-2-(3-(o-tolylsulfonyl)ureido)propanamide] | – | 1000 to 10000 nM | –
23 | Cc1ccccc1S(=O)(=O)NC(=O)N[C@@H](CCc1ccccc1)C(=O)N(C)c1ccc2c(c1)OCO2 [Example 209, (S)—N-(benzo[d][1,3]dioxol-5-yl)-N-methyl-4-phenyl-2-(3-(o-tolylsulfonyl)ureido)butanamide] | – | 10000 to 100000 nM | –
